Data published in patent publication EP1283052A1, “Pharmaceutical composition containing caspase-8 and /or caspase-9 useful for overcoming glucocorticoid- and cancer therapy-induced apoptosis of tumours” (Deutsches Krebsforschungszentrum Stiftung des öffentlichen …, priority 2001, dated 2003).

System: P5, P693 and CEM cells
Test: Mitochondrial membrane potential by JC-1 staining and flow cytometry
Type: cell-based, human
Settings: 24 h, co-stimulation with cisplatin 2 µg/ml on top of DEX; Fig. 3a
Method: • (a) P5, P693 or CEM cells, either untreated (CO) or stimulated with cisplatin (CIS, 2 µg/ml) were incubated in the absence (white bars) or presence (black bars) of DEX (1 µM). 24 h later cells were stained with the cationic dye JC-1 which indicates mitochondrial depolarization by an increase in green fluorescence. The percentage of green-fluorescent cells was determined by flow cytometry. • (b) P5 cells were treated as described above. 6 or 24 h later mitochondrial fractions were prepared and assayed by Western blotting using a monoclonal antibody which specifically detects the 15 kDa cytochrome c protein. The results depicted here have been performed three times with similar outcome.
• (A) Cell culture. […] The mice were given 0.28 mg/L DEX in drinking water, and the amount of water consumed was monitored. […] The tumour volumes were measured using callipers, and calculated using, as an approximation, the formula for volume of a hemi-ellipsoid: π(width^2 x length)/6. […] Early apoptotic changes were identified by staining of cells with fluoresceinthiocyanate (FITC)-conjugated annexin V and propidium iodide (Becton Dickinson, Heidelberg, Germany) and analysed by flow cytometry (FACScan, Becton Dickinson) as described (Herr et al., EMBO J. 16 (1997), 6200-6208) • (E) Immunohistochemistry. […] Protein expression was detected by Western blotting as described (Herr et al., 1997). […]

## N.N.[Cl][Pt][Cl] [cisplatin]
  percentage of green fluorescence (mitochondrial damage): further enhanced
